What follows are cell lines tested with Cn1cnc2c(F)c(Nc3ccc(Br)cc3Cl)c(C(=O)NOCCO)cc21 [Selumetinib] + COc1cc2c(Oc3ccc(NC(=O)C4(C(=O)Nc5ccc(F)cc5)CC4)cc3F)ccnc2cc1OCCCN1CCOCC1 [Foretinib] (partner 0.25 µM) (assay: relative viability (nuclei count vs DMSO), 5 days (fraction); higher = more cells survive). Conditions: first compound 0.6325 µM.
Procedure, shortened: (§1)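 Values are medians from duplicate plates. Each reflects relative viability, defined as the nuclei count of treated wells over that of vehicle wells. Lung cancer cell lines in 1536-well plates were pin-tool dosed one day after seeding with one drug alone or with a fixed anchor-drug dose plus five library-drug doses (not always all listed) in √10 steps, then fixed, stained and imaged at 4× after 5 days.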
For COR-L23, the relative viability was 0.934.
COR-L 105 gave a relative viability of 0.534.
With IA-LM the relative viability was 0.403.
A549 showed a relative viability of 0.32.
Work on SW 900 yielded a relative viability of 0.92.
Work on NCI-H1299 yielded a relative viability of 0.935.
In the case of NCI-H661, the relative viability is reported as 0.913.
Cell Line NCI-H1703 has a relative viability of 0.32.
For NCI-H1563, the relative viability was 0.824.
LCLC-103H was tested, and the relative viability was 0.72.
With ABC-1 the relative viability was 0.767.
Work on NCI-H358 yielded a relative viability of 0.291.
For NCI-H727, the relative viability was 0.352.

These cell lines were tested with Cn1cnc2c(F)c(Nc3ccc(Br)cc3Cl)c(C(=O)NOCCO)cc21 [Selumetinib] + CC1(C)CCC(c2ccc(Cl)cc2)=C(CN2CCN(c3ccc(C(=O)NS(=O)(=O)c4ccc(N[C@H](CCN5CCOCC5)CSc5ccccc5)c(S(=O)(=O)C(F)(F)F)c4)cc3)CC2)C1 [Navitoclax] (partner 0.5 µM) in the same assay as above. Conditions: first compound 0.02 µM.
Procedure, shortened: as §1
In the case of PC-14, the relative viability is reported as 1.02.
For NCI-H1666, the relative viability was 0.773.
EBC-1 showed a relative viability of 0.225.
With NCI-H1755 the relative viability was 1.03.
For NCI-H2023, the relative viability was 0.937.
Cell Line EPLC-272H has a relative viability of 0.791.
Cell Line LCLC-97TM1 has a relative viability of 0.497.
With PC-3 [JPC-3] the relative viability was 0.824.
Work on LOU-NH91 yielded a relative viability of 0.631.
NCI-H647 gave a relative viability of 1.26.
Cell Line NCI-H23 has a relative viability of 0.851.
EMC-BAC-2 gave a relative viability of 0.964.
Work on NCI-H2126 yielded a relative viability of 0.789.
With Calu-6 the relative viability was 0.727.
For HCC-44, the relative viability was 0.986.
With NCI-H1734 the relative viability was 0.862.
Cell Line LK-2 has a relative viability of 0.88.
In the case of NCI-H2228, the relative viability is reported as 0.928.
SK-MES-1 was tested, and the relative viability was 1.41.
In the case of HARA, the relative viability is reported as 1.17.
In the case of COR-L23, the relative viability is reported as 1.05.
Work on COR-L 105 yielded a relative viability of 0.78.
IA-LM gave a relative viability of 0.566.
In the case of A549, the relative viability is reported as 0.945.
NCI-H1299 gave a relative viability of 1.02.
NCI-H1792 showed a relative viability of 0.741.
NCI-H1703 was tested, and the relative viability was 1.12.
Cell Line NCI-H727 has a relative viability of 0.237.

Same assay, conditions: first compound 0.06325 µM
Cell Line PC-14 has a relative viability of 1.03.
NCI-H1666 gave a relative viability of 0.582.
Work on EBC-1 yielded a relative viability of 0.19.
Cell Line NCI-H1755 has a relative viability of 0.986.
NCI-H2023 was tested, and the relative viability was 0.924.
With EPLC-272H the relative viability was 0.942.
LCLC-97TM1 showed a relative viability of 0.606.
PC-3 [JPC-3] showed a relative viability of 0.744.
LOU-NH91 gave a relative viability of 0.607.
NCI-H647 showed a relative viability of 0.935.
With NCI-H23 the relative viability was 0.827.
EMC-BAC-2 was tested, and the relative viability was 0.989.
Cell Line NCI-H2126 has a relative viability of 0.764.
Cell Line Calu-6 has a relative viability of 0.513.
Work on HCC-44 yielded a relative viability of 0.847.
Work on NCI-H1734 yielded a relative viability of 0.818.
Work on LK-2 yielded a relative viability of 0.896.
NCI-H2228 gave a relative viability of 0.678.
SK-MES-1 gave a relative viability of 1.32.
HARA was tested, and the relative viability was 1.13.
COR-L23 gave a relative viability of 0.926.
Cell Line COR-L 105 has a relative viability of 0.574.
Cell Line IA-LM has a relative viability of 0.398.
With A549 the relative viability was 0.904.
NCI-H1299 gave a relative viability of 1.09.
In the case of NCI-H1792, the relative viability is reported as 0.641.
NCI-H1703 showed a relative viability of 0.875.
With NCI-H727 the relative viability was 0.184.

Same assay, conditions: first compound 0.2 µM
PC-14 was tested, and the relative viability was 0.957.
In the case of NCI-H1666, the relative viability is reported as 0.592.
With EBC-1 the relative viability was 0.193.
NCI-H1755 gave a relative viability of 0.961.
Cell Line NCI-H2023 has a relative viability of 0.959.
Cell Line EPLC-272H has a relative viability of 0.76.
LCLC-97TM1 was tested, and the relative viability was 0.368.
Cell Line PC-3 [JPC-3] has a relative viability of 0.721.
LOU-NH91 showed a relative viability of 0.514.
NCI-H647 showed a relative viability of 0.874.
Work on NCI-H23 yielded a relative viability of 0.672.
For EMC-BAC-2, the relative viability was 1.07.
NCI-H2126 was tested, and the relative viability was 0.75.
Calu-6 gave a relative viability of 0.355.
HCC-44 showed a relative viability of 0.794.
NCI-H1734 gave a relative viability of 0.87.
LK-2 showed a relative viability of 0.838.
Cell Line NCI-H2228 has a relative viability of 0.789.
Cell Line SK-MES-1 has a relative viability of 1.26.
With HARA the relative viability was 1.09.
COR-L23 showed a relative viability of 1.06.
COR-L 105 was tested, and the relative viability was 0.642.
With IA-LM the relative viability was 0.284.
A549 gave a relative viability of 0.734.
In the case of NCI-H1299, the relative viability is reported as 1.05.
NCI-H1792 gave a relative viability of 0.522.
In the case of NCI-H1703, the relative viability is reported as 1.29.
NCI-H727 was tested, and the relative viability was 0.119.

Same assay, conditions: first compound 0.6325 µM
PC-14 gave a relative viability of 0.949.
NCI-H1666 was tested, and the relative viability was 0.479.
EBC-1 showed a relative viability of 0.138.
In the case of NCI-H1755, the relative viability is reported as 0.948.
NCI-H2023 showed a relative viability of 0.783.
Work on EPLC-272H yielded a relative viability of 0.843.
In the case of LCLC-97TM1, the relative viability is reported as 0.309.
For PC-3 [JPC-3], the relative viability was 0.651.
In the case of LOU-NH91, the relative viability is reported as 0.556.
Cell Line NCI-H647 has a relative viability of 0.959.
NCI-H23 showed a relative viability of 0.63.
Work on EMC-BAC-2 yielded a relative viability of 1.06.
Cell Line NCI-H2126 has a relative viability of 0.59.
Calu-6 gave a relative viability of 0.234.
Work on HCC-44 yielded a relative viability of 0.836.
For NCI-H1734, the relative viability was 0.679.
Cell Line LK-2 has a relative viability of 1.06.
For NCI-H2228, the relative viability was 0.729.
SK-MES-1 was tested, and the relative viability was 1.06.
HARA was tested, and the relative viability was 1.1.
COR-L23 was tested, and the relative viability was 1.04.
For COR-L 105, the relative viability was 0.451.
With IA-LM the relative viability was 0.315.
A549 was tested, and the relative viability was 0.596.
NCI-H1299 was tested, and the relative viability was 0.899.
With NCI-H1792 the relative viability was 0.533.
In the case of NCI-H1703, the relative viability is reported as 1.1.
Cell Line NCI-H727 has a relative viability of 0.103.

What follows are cell lines tested with Cn1cnc2c(F)c(Nc3ccc(Br)cc3Cl)c(C(=O)NOCCO)cc21 [Selumetinib] + Nc1nc2[nH]cc(CCc3ccc(C(=O)N[C@@H](CCC(=O)O)C(=O)O)cc3)c2c(=O)[nH]1 [Pemetrexed] (partner 0.2 µM) in the same assay as above. Conditions: first compound 0.02 µM.
Procedure, shortened: as §1
With NCI-H522 the relative viability was 0.962.
For PC-14, the relative viability was 0.123.

Reference: the supplement of paper PMC10307832
